Reference: PubChem BioAssay (NCI)
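GI50 marks 50% less growth. TGI: concentration producing complete growth inhibition.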

Key:
Experiment in all cases: NCI anticancer screen, dose series, 384-well format
SF-539 CNS = tested on: SF-539 CNS
HCT-116 colon = tested on: HCT-116 colon
SK-MEL-28 melanoma = tested on: SK-MEL-28 melanoma
786-0 renal = tested on: 786-0 renal
HT29 colon = tested on: HT29 colon
SNB-19 CNS = tested on: SNB-19 CNS
RXF 393 renal = tested on: RXF 393 renal
PC-3 prostate = tested on: PC-3 prostate
NCI-H460 NSCLC = tested on: NCI-H460 NSCLC
HOP-62 NSCLC = tested on: HOP-62 NSCLC
T-47D breast = tested on: T-47D breast
MDA-MB-468 breast = tested on: MDA-MB-468 breast
MDA-MB-231 breast = tested on: MDA-MB-231 breast
SF-295 CNS = tested on: SF-295 CNS
K-562 leukemia = tested on: K-562 leukemia
HCC-2998 colon = tested on: HCC-2998 colon
SK-OV-3 ovarian = tested on: SK-OV-3 ovarian
MOLT-4 leukemia = tested on: MOLT-4 leukemia
MCF7 breast = tested on: MCF7 breast
COLO 205 colon = tested on: COLO 205 colon
DU-145 prostate = tested on: DU-145 prostate
UO-31 renal = tested on: UO-31 renal
SR leukemia = tested on: SR leukemia
ACHN renal = tested on: ACHN renal
CCRF-CEM leukemia = tested on: CCRF-CEM leukemia
TK-10 renal = tested on: TK-10 renal
OVCAR-8 ovarian = tested on: OVCAR-8 ovarian
OVCAR-4 ovarian = tested on: OVCAR-4 ovarian
NCI/ADR-RES ovarian = tested on: NCI/ADR-RES ovarian

SMILES: C=Cc1c(C)c2cc3nc(cc4[nH]c(cc5nc(cc1[nH]2)C(C)=C5CCC(=O)O)c(CCC(=O)OC)c4C)[C@@]1(C)C3=CC=C(C(=O)OC)[C@H]1C(=O)OC
- TGI (SF-539 CNS): 3.22 µM
- GI50 (HCT-116 colon): 1.28 µM
- TGI (HCT-116 colon): 2.77 µM
- GI50 (SK-MEL-28 melanoma): 1.98 µM
- TGI (SK-MEL-28 melanoma): 4.25 µM
- GI50 ([…]-0 renal): 2.26 µM
- TGI (786-0 renal): 6.55 µM
- GI50 (HT29 colon): 1.98 µM
- TGI (HT29 colon): 4.72 µM
- GI50 (SNB-19 CNS): 2.76 µM
- TGI (SNB-19 CNS): 9.04 µM
- GI50 (RXF 393 renal): 0.668 µM
- TGI (RXF 393 renal): 2.56 µM
- GI50 (PC-3 prostate): 1.93 µM
- TGI (PC-3 prostate): 4.24 µM
- GI50 (NCI-H460 NSCLC): 1.69 µM
- TGI (NCI-H460 NSCLC): 3.26 µM
- GI50 (HOP-62 NSCLC): 1.7 µM
- TGI (HOP-62 NSCLC): 4.16 µM
- GI50 (T-47D breast): 0.999 µM
- TGI (T-47D breast): 6.82 µM
- GI50 (MDA-MB-468 breast): 0.75 µM
- TGI (MDA-MB-468 breast): 2.67 µM
- GI50 (MDA-MB-231 breast): 1.51 µM
- TGI (MDA-MB-231 breast): 4.38 µM
- GI50 (SF-295 CNS): 1.28 µM
- TGI (SF-295 CNS): 2.94 µM
- GI50 (K-562 leukemia): 1.03 µM
- TGI (K-562 leukemia): 9.64 µM
- GI50 (HCC-2998 colon): 1.54 µM
- TGI (HCC-2998 colon): 3.11 µM
- GI50 (SK-OV-3 ovarian): 1.92 µM
- TGI (SK-OV-3 ovarian): 4.73 µM
- GI50 (MOLT-4 leukemia): 1.23 µM
- TGI (MOLT-4 leukemia): 2.49 µM
- GI50 (MCF7 breast): 1.94 µM
- TGI (MCF7 breast): 5.76 µM
- GI50 (COLO 205 colon): 2.45 µM
- TGI (COLO 205 colon): 5.95 µM
- GI50 (DU-145 prostate): 2.22 µM
- TGI (DU-145 prostate): 5.49 µM
- GI50 (UO-31 renal): 2.33 µM
- TGI (UO-31 renal): 6.21 µM
- GI50 (SR leukemia): 0.579 µM
- TGI (SR leukemia): 1.85 µM
- GI50 (ACHN renal): 2.46 µM
- TGI (ACHN renal): 6.83 µM
- GI50 (CCRF-CEM leukemia): 1.19 µM
- TGI (CCRF-CEM leukemia): 2.71 µM
- GI50 (TK-10 renal): 2.4 µM
- TGI (TK-10 renal): 6.19 µM
- GI50 (OVCAR-8 ovarian): 2.09 µM
- TGI (OVCAR-8 ovarian): 6.68 µM
- GI50 (OVCAR-4 ovarian): 1.25 µM
- TGI (OVCAR-4 ovarian): 3.61 µM
- GI50 (NCI/ADR-RES ovarian): 1.91 µM
- TGI (NCI/ADR-RES ovarian): 4.63 µM
